{
  "source": "paper PMC9751974",
  "about": "(Frontiers in Microbiology, 2022)",
  "key": {"[1]": {"tested_on": "healthy mouse red blood cells", "details": "cited from earlier work; for hemolysis rate: reported in previous research, ref Zhou et al., 2021", "excerpt": "Escherichia coli (E. coli) infection and LPS-induced inflammation are still of severe threat to human health. With the increasing problem of antibiotic resistance, there is a desperate need to develop new approaches to solve the problem."}, "pepsin and trypsin": {"tested_on": "pepsin and trypsin", "experiment": "Protease stability, pepsin and trypsin stated together", "protocol": "The untreated peptides and buffer solution were used as control. […] All assays were carried out in triplicate."}, "E. coli ATCC25922 [2]": {"tested_on": "E. coli ATCC25922", "protocol": "The MIC values of peptides against E. coli ATCC25922 were determined by the microtiter broth dilution method. The bacteria were grown to the mid-logarithmic phase and diluted into the Luria-Bertani (LB) broth at 1 × 10^5 CFU/mL. […] Polymyxin and the sterile aqua distillate were tested as control. All assays were performed in triplicate."}, "[3]": {"tested_on": "murine RAW264.7 macrophage cells", "protocol": "The performance of the Cell Counting Kit-8 (CCK-8) assay was applied to investigate the effect of peptides on the viability of murine RAW264.7 macrophage cells and Vero cells in accordance with the previous method ([Zhou et al., 2021]). Cells (2.5 × 10^4 cells/well) were added into 96-well plates and incubated at 37°C in a humidified 5% CO2 environment for 24 h. Then various concentrations (0.15–20 μg/mL) of peptides were mixed with cells. Sterile aqua distillate was used as control. Eventually, 10 μL WST-8 solutions were added into each well. After 4 h of incubation at 37°C, a microplate reader was applied to measure the absorbance of each sample at 460 nm. The following formula was used to calculate cell viability: Cell viability (%) = OD 460 nm of treated sample/OD 460 nm of control × 100%."}, "[4]": {"tested_on": "healthy mouse red blood cells", "experiment": "Hemolysis", "details": "mouse red blood cells 8% v/v, PBS pH 7.4, 37°C, 1 h, OD540, three replicates", "protocol": "Hemolytic activity was estimated by determining hemoglobin released from healthy mouse red blood cells. Blood cells were washed three times in sterile PBS (10 mM, pH 7.4) and centrifuged at 1500 rpm for 5 min at 4°C. […] Afterward, the mixtures were incubated at 37°C for 1 h and centrifuged at 1500 rpm for 5 min. Ultimately, the absorbance of supernatants was measured at 540 nm. PBS and 0.1% Triton X-100 were used as the negative and the positive control, respectively. Hemolysis (%) = [(OD540 nm of the treated sample-OD540 nm of the negative control)/ (OD540 nm of positive control-OD540 nm of negative control)] × 100%."}, "[5]": {"tested_on": "RAW264.7 cells and Vero cells", "experiment": "Cytotoxicity, CCK-8 assay, RAW264.7 and Vero stated together", "details": "128 μg/mL; range over Figures 1D,E (RAW264.7 and Vero)", "protocol": "Cells (2.5 × 10^4 cells/well) were added into 96-well plates and incubated at 37°C in a humidified 5% CO2 environment for 24 h. […] Sterile aqua distillate was used as control. Eventually, 10 μL WST-8 solutions were added into each well. After 4 h of incubation at 37°C, a microplate reader was applied to measure the absorbance of each sample at 460 nm. The following formula was used to calculate cell viability: Cell viability (%) = OD 460 nm of treated sample/OD 460 nm of control × 100%."}, "pepsin": {"molecular_target": "pepsin (Sus scrofa, UniProt P00791)", "sequence (P00791 60-385)": "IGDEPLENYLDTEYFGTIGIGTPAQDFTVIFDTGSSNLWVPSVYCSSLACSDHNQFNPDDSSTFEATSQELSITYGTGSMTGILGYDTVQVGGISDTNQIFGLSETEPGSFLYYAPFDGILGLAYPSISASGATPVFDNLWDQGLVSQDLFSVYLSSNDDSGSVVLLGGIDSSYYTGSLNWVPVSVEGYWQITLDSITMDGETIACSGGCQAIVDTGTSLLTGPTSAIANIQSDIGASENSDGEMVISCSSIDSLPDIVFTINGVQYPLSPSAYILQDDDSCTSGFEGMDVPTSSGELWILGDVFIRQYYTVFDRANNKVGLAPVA", "experiment": "Protease stability (MIC after incubation with pepsin)", "format": "in vitro ADME", "details": "pepsin 3,000 U/mg, pH 2.0, 4 h, 37°C; peptide:protease 10:1 w/w (320 and 32 μg/mL); read-out MIC; triplicate", "protocol": "All assays were carried out in triplicate."}, "[6]": {"details": "ref Zhou et al., 2021; cited from earlier work", "excerpt": "As essential components of innate immunity, antimicrobial peptides (AMPs) contribute to the first line of defense against infections. […] However, its ant ..."}, "[7]": {"tested_on": "murine RAW264.7 macrophage cells", "details": "128 μg/mL; cell line not given; ref Zhou et al., 2021; cited from earlier work", "protocol": "The toxicity of peptides to mouse eukaryotic cells, macrophagocyte RAW 264.7 and Vero cells was determined."}, "E. coli ATCC25922 [8]": {"tested_on": "E. coli ATCC25922", "experiment": "Development of resistance by serial passaging (MIC assay)", "format": "cell-based, Escherichia coli", "details": "11 serial passages of E. coli ATCC25922, inoculum from 1/4 MIC well, 11 days", "protocol": "The development of resistance against E. coli ATCC25922 of these peptides was performed by MIC assay. Mid-log phase of bacteria (1 × 10^5 CFU/mL) (90 μL/well) was added to 10 μL peptides solution (128, 64, 32, 16, 8, 4, 2, 1, 0.5, 0.25 μg/mL). Polymyxin were used as control. After incubation at 37°C for 16–18 h, bacteria form 1/4 MIC well were used to inoculate in fresh culture. The MIC values were continually determined as described above. The serial passaging was repeated for 11 days."}},
  "note": "Read-outs that look alike come from different tables or passages of the source. Where a SMILES comes first, the peptide text is derived from it. [ ]: non-standard residue; d: D form.",
  "data": [
    {"molecule": "CC(C)C[C@H](NC(=O)[C@H](CCCNC(=N)N)NC(=O)[C@@H](N)C(C)C)C(=O)N[C@@H](CCCNC(=N)N)C(=O)N[C@@H](Cc1c[nH]c2ccccc12)C(=O)N[C@@H](Cc1c[nH]c2ccccc12)C(=O)N[C@@H](CCCNC(=N)N)C(=O)N[C@@H](CCCNC(=N)N)C(=O)N[C@@H](CCCNC(=N)N)C(=O)N[C@@H](Cc1c[nH]c2ccccc12)C(=O)N[C@@H](CCCNC(=N)N)C(=O)N[C@@H](CCCNC(=N)N)C(N)=O", "note": "[1018M] (H-VRLRWWRRRWRR-NH2)", "values": [
      {"measurement": "hemolysis", "setting": "[1]", "result": 0, "unit": "%"},
      {"measurement": "decline of anti-E. coli ability after exposure to pepsin and trypsin", "setting": "pepsin and trypsin", "result": 4, "unit": "times"},
      {"measurement": "MIC", "setting": "E. coli ATCC25922 [2]; ATCC25922", "result": 8, "unit": "µg/mL"}
    ]},
    {"molecule": "CC(C)C[C@@H](NC(=O)[C@@H](CCCNC(=N)N)NC(=O)[C@H](N)C(C)C)C(=O)N[C@H](CCCNC(=N)N)C(=O)N[C@H](Cc1c[nH]c2ccccc12)C(=O)N[C@H](Cc1c[nH]c2ccccc12)C(=O)N[C@H](CCCNC(=N)N)C(=O)N[C@H](CCCNC(=N)N)C(=O)N[C@H](CCCNC(=N)N)C(=O)N[C@H](Cc1c[nH]c2ccccc12)C(=O)N[C@H](CCCNC(=N)N)C(=O)N[C@H](CCCNC(=N)N)C(N)=O", "note": "[D1018M] (H-[dV][dR][dL][dR][dW][dW][dR][dR][dR][dW][dR][dR]-NH2)", "values": [
      {"measurement": "safe concentration of murine macrophage cells", "setting": "[3]", "result": "4 times of MIC"},
      {"measurement": "decline of anti-E. coli ability after exposure to pepsin and trypsin", "setting": "pepsin and trypsin", "result": 4, "unit": "times"},
      {"measurement": "increase of resistance against tested proteases", "setting": "pepsin and trypsin", "result": "2–4 times"},
      {"measurement": "MIC", "setting": "E. coli ATCC25922 [2]; ATCC25922", "result": 4, "unit": "µg/mL"}
    ]},
    {"molecule": "CC[C@@H](C)[C@@H](NC(=O)[C@@H](CCCNC(=N)N)NC(=O)[C@H](NC(=O)[C@@H](C)NC(=O)[C@H](NC(=O)[C@H](NC(=O)[C@@H](CC(C)C)NC(=O)[C@@H](CCCNC(=N)N)NC(=O)[C@H](N)C(C)C)[C@H](C)CC)C(C)C)C(C)C)C(=O)N[C@H](Cc1c[nH]c2ccccc12)C(=O)N[C@H](CCCNC(=N)N)C(=O)N[C@H](CCCNC(=N)N)C(N)=O", "note": "[D1018] (H-[dV][dR][dL][dI][dV][dA][dV][dR][dI][dW][dR][dR]-NH2)", "values": [
      {"measurement": "hemolysis rate", "setting": "[4]; 32 μg/mL", "result": 0.542, "unit": "%"},
      {"measurement": "hemolysis rate", "setting": "[4]; 64 μg/mL", "result": 1.724, "unit": "%"},
      {"measurement": "hemolysis rate", "setting": "[4]; 128 μg/mL", "result": 2.316, "unit": "%"},
      {"measurement": "survival rate", "setting": "[5]", "result": "81.7–87.6%"},
      {"measurement": "increase of resistance against tested proteases", "setting": "pepsin and trypsin; abstract, D-peptides compared with L-parents", "result": "2–4 times"},
      {"measurement": "MIC against E. coli ATCC25922 after exposure to pepsin", "setting": "pepsin", "result": 4, "unit": "µg/mL"}
    ]},
    {"molecule": "CC[C@H](C)[C@H](NC(=O)[C@H](CCCNC(=N)N)NC(=O)[C@@H](NC(=O)[C@H](C)NC(=O)[C@@H](NC(=O)[C@@H](NC(=O)[C@H](CC(C)C)NC(=O)[C@H](CCCNC(=N)N)NC(=O)[C@@H](N)C(C)C)[C@@H](C)CC)C(C)C)C(C)C)C(=O)N[C@@H](Cc1c[nH]c2ccccc12)C(=O)N[C@@H](CCCNC(=N)N)C(=O)N[C@@H](CCCNC(=N)N)C(N)=O", "note": "[IDR-1018] (H-VRLIVAVRIWRR-NH2)", "values": [
      {"measurement": "hemolysis rate", "setting": "[1]; 32 μg/mL", "result": 0.386, "unit": "%"},
      {"measurement": "hemolysis rate", "setting": "[1]; 64 μg/mL", "result": 2.136, "unit": "%"},
      {"measurement": "hemolysis rate", "setting": "[1]; 128 μg/mL", "result": 2.651, "unit": "%"},
      {"measurement": "decrease of activity on exposure to inappropriate temperature, pH, or protease environment", "setting": "[6]", "result": "2–16 times"},
      {"measurement": "survival rate", "setting": "[7]", "result": 95.9, "unit": "%"},
      {"measurement": "decline of anti-E. coli ability after exposure to pepsin and trypsin", "setting": "pepsin and trypsin; 4 h, 37°C, pepsin pH 2.0 and trypsin pH 8.0, 10:1 w/w, read-out MIC vs untreated peptide", "result": "2–4 times"}
    ]},
    {"molecule": "Polymyxin [reference compound]", "values": [
      {"measurement": "change of MIC after serial passages", "setting": "E. coli ATCC25922 [8]", "result": "no change in MIC"},
      {"measurement": "MIC", "setting": "E. coli ATCC25922 [2]; E. coli ATCC25922, LB broth, 1 × 10^5 CFU/mL, 37°C, 16–24 h, triplicate", "result": 1.56, "unit": "µg/mL"}
    ]}
  ]
}
